Details in all cases: read-out: ED50 (the source's name)
In one experiment the test system is A549. Kind of experiment: Cytotoxicity against human A549 cells. In kind it is functional.
A further experiment has as its system SK-OV-3. Kind of experiment: Cytotoxicity against human SKOV3 cells. Format: functional.
In the next experiment the test system is SK-MEL-2. Kind of experiment: Cytotoxicity against human SK-MEL-2 cells. In kind it is functional.
In the next experiment the test system is XF498. Kind of experiment: Cytotoxicity against human XF498 cells. In kind it is functional.
Experiment [1] deals with HCT-15 (human colon cancer). Kind of experiment: Cytotoxicity against human HCT15 cells.

Each structure is given as a SMILES string. Converted amounts (≈) assume the structure as drawn.

Turning to `CCCCO[C@@H]1C=C2[C@@H]3CC[C@H]([C@H](C)/C=C/CC(C)C)[C@@]3(C)CC[C@@H]2[C@@]2(C)CC[C@H](O)C[C@]12O` [HOMAXISTEROL A1], the EC50 is 8.54 µg/mL (≈ 18.1 µM) in the experiment on A549; 7.57 µg/mL (≈ 16 µM) with SK-OV-3; 6.88 µg/mL (≈ 14.6 µM) in the experiment on SK-MEL-2; 6.33 µg/mL (≈ 13.4 µM) in the experiment on XF498; 7.62 µg/mL (≈ 16.1 µM) in experiment [1].

Take `CCCCO[C@@H]1C=C2[C@@H]3CC[C@H]([C@H](C)/C=C/[C@H](CC)C(C)C)[C@@]3(C)CC[C@@H]2[C@@]2(C)CC[C@H](O)C[C@]12O` [HOMAXISTEROL A4]: the EC50 in the experiment on A549 is over 30 µg/mL; in the experiment with SK-OV-3, over 30 µg/mL; in the experiment with SK-MEL-2 it was over 30 µg/mL; in the experiment with XF498 it was 34.1 µg/mL (≈ 68.1 µM); in experiment [1], over 30 µg/mL.

As to `CCCCO[C@@H]1C=C2[C@@H]3CC[C@H]([C@H](C)/C=C/[C@H](C)C(C)C)[C@@]3(C)CC[C@@H]2[C@@]2(C)CC[C@H](O)C[C@]12O` [HOMAXISTEROL A3], the EC50 in the experiment with A549 turned out to be 8.42 µg/mL (≈ 17.3 µM); with SK-OV-3, 7.85 µg/mL (≈ 16.1 µM); in the experiment with SK-MEL-2, 6.1 µg/mL (≈ 12.5 µM); in the experiment with XF498, 5.03 µg/mL (≈ 10.3 µM); in experiment [1], 7.1 µg/mL (≈ 14.6 µM).

On to `CC(C)[C@H](C)/C=C/[C@@H](C)[C@H]1CCC2C3=CC(=O)O[C@@]3(O)CC[C@@]21C` (stereo not given in full) [DEMETHYLINCISTEROL A2], for which the EC50 stood at 1.51 µg/mL (≈ 4.54 µM) in the experiment with A549; 1.49 µg/mL (≈ 4.48 µM) with SK-OV-3; 1.21 µg/mL (≈ 3.64 µM) in the experiment on SK-MEL-2; 0.93 µg/mL (≈ 2.8 µM) with XF498; 1.28 µg/mL (≈ 3.85 µM) in experiment [1].

In the case of `CC[C@@H](/C=C/[C@@H](C)[C@H]1CCC2C3=CC(=O)O[C@@]3(O)CC[C@@]21C)C(C)C` (stereo not given in full) [DEMETHYLINCISTEROL A4], the EC50 in the experiment with A549 is 0.92 µg/mL (≈ 2.66 µM); with SK-OV-3, 0.79 µg/mL (≈ 2.28 µM); in the experiment on SK-MEL-2, 0.55 µg/mL (≈ 1.59 µM); in the experiment with XF498, 0.68 µg/mL (≈ 1.96 µM); in experiment [1], 0.65 µg/mL (≈ 1.88 µM).

For the compound `CC(C)[C@@H](C)/C=C/[C@@H](C)[C@H]1CCC2C3=CC(=O)O[C@@]3(O)CC[C@@]21C` (stereo not given in full) [DEMETHYLINCISTEROL A3], the EC50 in the experiment with A549 turned out to be 1.62 µg/mL (≈ 4.87 µM); in the experiment on SK-OV-3, 1.97 µg/mL (≈ 5.93 µM); in the experiment with SK-MEL-2, 1.3 µg/mL (≈ 3.91 µM); with XF498 it was 1.14 µg/mL (≈ 3.43 µM); in experiment [1], 1.39 µg/mL (≈ 4.18 µM).

Take `CC(C)C/C=C/[C@@H](C)[C@H]1CCC2C3=CC(=O)O[C@@]3(O)CC[C@@]21C` (stereo not given in full) [DEMETHYLINCISTEROL A1]: the EC50 was found to be 2.79 µg/mL (≈ 8.76 µM) in the experiment with A549; 1.7 µg/mL (≈ 5.34 µM) in the experiment with SK-OV-3; 1.94 µg/mL (≈ 6.09 µM) in the experiment on SK-MEL-2; 1.08 µg/mL (≈ 3.39 µM) with XF498; 1.42 µg/mL (≈ 4.46 µM) in experiment [1].

On to `CCCCO[C@@H]1C=C2[C@@H]3CC[C@H]([C@H](C)/C=C/[C@@H](C)C(C)C)[C@@]3(C)CC[C@@H]2[C@@]2(C)CC[C@H](O)C[C@]12O` [HOMAXISTEROL A2], for which the EC50 in the experiment on A549 is 6.23 µg/mL (≈ 12.8 µM); with SK-OV-3, 4.43 µg/mL (≈ 9.1 µM); in the experiment with SK-MEL-2, 3.69 µg/mL (≈ 7.58 µM); in the experiment on XF498, 4.17 µg/mL (≈ 8.57 µM); in experiment [1], 4.4 µg/mL (≈ 9.04 µM).

Regarding `COc1cccc2c1C(=O)c1c(O)c3c(c(O)c1C2=O)C[C@@](O)(C(=O)CO)C[C@@H]3O[C@H]1C[C@H](N)[C@H](O)[C@H](C)O1` [DOXORUBICIN], the EC50 is 0.11 µg/mL (≈ 0.202 µM) in the experiment with A549; 0.09 µg/mL (≈ 0.166 µM) in the experiment on SK-OV-3; 0.04 µg/mL (≈ 0.0736 µM) with SK-MEL-2; 0.07 µg/mL (≈ 0.129 µM) in the experiment on XF498; 0.17 µg/mL (≈ 0.313 µM) in experiment [1].
